Laboratory results published in the NIST ThermoML archive (doi:10.1021/acs.jced.7b00445).
Numbers after ± are expanded uncertainties.

Key:
[1] = Boiling temperature at pressure P; conditions: 101.3 kPa; Liquid; Ebulliometric method (Recirculating still)
[2] = 298.15 K; 101.33 kPa; Liquid; Pycnometric method
[3] = refractive index (Na D-line) (dimensionless); conditions: 298.15 K; 101.33 kPa; Liquid; Standard Abbe refractometry

In the case of `CCC(C)OC(C)=O` (configuration not stated) [1-methylpropyl ethanoate], the “Boiling temperature at pressure P” value [1] is reported as 111.97 ± 0.16 °C, the mass density [2] is reported as 867 ± 2 kg/m3 and the refractive index [3] is reported as 1.3872 ± 0.0004.

For `CCO` [ethanol], the “Boiling temperature at pressure P” value [1] was 78.27 ± 0.16 °C, the mass density [2] was 786 ± 2 kg/m3 and the refractive index [3] was 1.3596 ± 0.0004.

In the case of `CCCO` [propan-1-ol], the “Boiling temperature at pressure P” value [1] is reported as 97.17 ± 0.16 °C, the mass density [2] is reported as 802 ± 2 kg/m3 and the refractive index [3] is reported as 1.3842 ± 0.0004.

For `CC(C)O` [propan-2-ol], the “Boiling temperature at pressure P” value [1] was 82.36 ± 0.16 °C, the mass density [2] was 782 ± 2 kg/m3 and the refractive index [3] was 1.3757 ± 0.0004.
